Laboratory results taken from US6572788B2, “Amine oxide wood preservatives” (Lonza, Inc., priority 2000, dated 2003).

Legend:
Decay = assay: Field stake test (AWPA E7), southern yellow pine stakes in ground: decay; details: 10 stakes, 10 = all stakes intact and free of decay, 0 = completely decayed
Method: (§1) 40″ by ¾″ by ¾″ pieces of southern yellow pine lumber were treated with the aqueous solution prepared in Example 1 according to the procedure described in the American Wood Preservers' Association test method E7, which is hereby incorporated by reference. The procedure is generally as follows. The southern yellow pine lumber pieces were placed in a pressure treating cylinder for about 30 minutes at about −90 kPa, injected with the aqueous solution, and pressurized to about 800 kPa for about 30 minutes. The pressure was released by the addition of air and the solution was drained.
(§2) This procedure was repeated with aqueous solutions containing 0.5 or 1.0% by weight of copper chromium arsenate (CCA) and aqueous solutions containing 0.5, 1.0, or 1.5% by weight of didecyl dimethyl ammonium chloride (DDAC).
(§3) After 11 months, the stakes were observed.

stains, molds, and fungi [1] = assay: Wood preserving efficacy on freshly cut green chestnut oak (dip treatment); design: scale not given here
stains, molds, and fungi [2] = assay: Wood preserving efficacy on freshly cut tulip wood (dip treatment); note: key: 4 - Clean with no visible stain or mold; 3 - Trace amount of white/black fungal growth; 2 - Black and/or white fungal growth visible on all faces and ends; 1 - Heavy fungal growth
Method: The wood preserving efficacy of each aqueous test solution in Table 17 below was tested on freshly cut tulip wood (also known as Tulip-Popular, Yellow Popular, and Liriodendron tulipfera L.) as follows. All percentages in Table 17 are by weight. Pieces of tulip wood cut from a 4″ debarked branch were cut into pieces. Each piece was then split into 4 sections. Each section was dipped into the test solution for about 1 minute and blotted with a paper towel to remove excess liquid. The sections were sealed in a clear plastic bag and stored at ambient conditions. The sections were observed after 1, 3, 7, and 11 weeks for the growth of stains, molds, and fungi. The aqueous test solutions were prepared by mixing the active ingredient with water.

Termite = assay: Field stake test (AWPA E7), southern yellow pine stakes in ground: termite attack; details: 10 stakes, 10 = free of termite attack, 0 = completely attacked
Method: as §1, §2, §3

stains, molds, and fungi [3] = assay: Wood preserving efficacy on freshly cut beech wood (dip treatment); details: beech wood pieces (Example 15); note: key: 4 - Clean with no visible stain or mold; 3 - Trace amount of white/black fungal growth; 2 - Black and/or white fungal growth visible on all faces and ends; 1 - Heavy fungal growth
Method: The wood preserving efficacy of each aqueous test solution in Table 18 below was tested on freshly cut beech wood (Fagus grandifolia Ehrh.) as follows. All percentages in Table 18 are by weight. A 1″ branch of a beech tree was split into two pieces. The bark was left on the pieces. Each piece was dipped into the test solution for about 1 minute and blotted with a paper towel to remove excess liquid. […] The aqueous test solutions were prepared by mixing the active ingredient with water.

[4] = test system: Poria placenta (P. placenta), a brown rot fungus; assay: Agar plate method, fungus growth inhibition; assay type: cell-based
Method: (§4) The efficacy of aqueous solutions of amine oxides and didecyldimethyl ammonium chloride to inhibit fungus growth was evaluated by the agar plate method known in the art. […] The fungi tested were Trametes versicolor (T. versicolor), a white rot fungus; Gloeophyllum trabeum (G. trabeum), a brown rot fungus which is tolerant of arsenic and phenolic type wood preservatives; Poria placenta (P. placenta), a brown rot fungus which is tolerant to copper in wood preservatives; Lentinus lepideus (L. lepideus), a brown rot fungus which is tolerant to creosote; Coniophora puteana (C. puteana), a brown rot fungus; and Chaetomium globsum (C. globsum), a soft rot fungus.

[5] = test system: Gloeophyllum trabeum (G. trabeum), a brown rot fungus; assay: Agar plate method, fungus growth inhibition; assay type: cell-based
Method: as §4

[6] = test system: Chaetomium globsum (C. globsum), a soft rot fungus; assay: Agar plate method, fungus growth inhibition; assay type: cell-based
Method: as §4

[7] = test system: Trametes versicolor (T. versicolor), a white rot fungus; assay: Agar plate method, fungus growth inhibition; assay type: cell-based; details: 50% retardation of growth
Method: as §4

stains, molds, and fungi [8] = assay: Wood preserving efficacy on freshly cut white birch wood (dip treatment, sealed bag); design: key: 4 - Clean with no visible stain or mold; 3 - Trace amount of white/black fungal growth; 2 - Black and/or white fungal growth visible on all faces and ends; 1 - Heavy fungal growth
Method: The wood preserving efficacy of each aqueous test solution in Table 1 below was tested on freshly cut white birch wood as follows. All percentages in Table 1 are by weight. A branch of white birch tree measuring about 3 inches in diameter was cut into pieces about 6 inch in length. Each piece was then split into 4 sections. Each section was dipped into the test solution for about 1 minute and blotted with a paper towel to remove excess liquid. The sections were sealed in a clear plastic bag and stored at ambient conditions. The sections were observed after 1, 3, 7, and 12 weeks for the growth of stains, molds, and fungi. The aqueous test solutions were prepared by mixing the active ingredient with water.

[9] = test system: Coniophora puteana (C. puteana), a brown rot fungus; assay: Agar plate method, fungus growth inhibition; assay type: cell-based
Method: as §4

[10] = test system: Lentinus lepideus (L. lepideus), a brown rot fungus; assay: Agar plate method, fungus growth inhibition; assay type: cell-based
Method: as §4

[11] = test system: G. trabeum (brown rot fungi); assay: Agar dilution plate method, wood rot fungi; assay type: cell-based; details: G. trabeum, 100% growth retardation, Table 14
Method: (§5) The efficacy of the aqueous amine oxide solutions in Table 14 at various concentrations against the wood rot fungi T. versicolor (white rot fungi), G. trabeum (brown rot fungi), P. placenta (brown rot fungi), and C. globosum (soft rot decay fungi) were determined using the agar dilution plate method well known in the art. […] The percent retardation of the fungi was determined by the percentage change in the diameter of the fungi on the agar plate (i.e. Percent Retardation=((Diameter of Control)−(Diameter of Treated Fungi))/(Diameter of Control)*100%).

[12] = test system: C. globosum (soft rot decay fungi); assay: Agar dilution plate method, wood rot fungi; assay type: cell-based; details: C. globosum, 100% growth retardation, Table 14
Method: as §5

[13] = test system: P. placenta (brown rot fungi); assay: Agar dilution plate method, wood rot fungi; assay type: cell-based; details: P. placenta, 100% growth retardation, Table 14
Method: as §5

[14] = test system: T. versicolor (white rot fungi); assay: Agar dilution plate method, wood rot fungi; assay type: cell-based; details: T. versicolor, 100% growth retardation, Table 14
Method: as §5

[15] = Field Site A, listed as 0.5% (w/w) DDAC
[16] = Field Site A, listed as 1.0% (w/w) DDAC
[17] = Field Site A, listed as […] (w/w) DDAC

CCCCCCCCCC[N+](C)(C)CCCCCCCCCC.[Cl-] [Didecyldimethyl ammonium chloride, didecyldimethylammonium chloride, reference compound]
Rating after 11 Months, Decay (Decay; [15]): 9.9 ± 0.3
Rating after 11 Months, Decay (Decay; [16]): 10
Rating after 11 Months, Decay (Decay; [17]): 10
Rating after 11 Months, Decay (Decay; Field Site B): 10
Rating of treated green chestnut oak sections vs. Time (stains, molds, and fungi [1]; 2 weeks): 3
Rating of treated green chestnut oak sections vs. Time (stains, molds, and fungi [1]; 4 weeks): 2
Rating of treated green chestnut oak sections vs. Time (stains, molds, and fungi [1]; 5 weeks): 2
Rating of treated green chestnut oak sections vs. Time (stains, molds, and fungi [1]; 9 weeks): 1
Rating of treated tulip sections vs. Time (stains, molds, and fungi [2]; 1 week): 4
Rating of treated tulip sections vs. Time (stains, molds, and fungi [2]; 3 weeks): 4
Rating of treated tulip sections vs. Time (stains, molds, and fungi [2]; 7 weeks, listed as 0.32% Didecyldimethyl ammonium chloride): 3.5
Rating of treated tulip sections vs. Time (stains, molds, and fungi [2]; 7 weeks, listed as 0.65% Didecyldimethyl ammonium chloride): 4
Rating of treated tulip sections vs. Time (stains, molds, and fungi [2]; 11 weeks, listed as 0.32% Didecyldimethyl ammonium chloride): 3.5
Rating of treated tulip sections vs. Time (stains, molds, and fungi [2]; 11 weeks, listed as 0.65% Didecyldimethyl ammonium chloride): 4
Rating after 11 Months, Termite Attack (Termite; [15]): 9.3 ± 0.9
Rating after 11 Months, Termite Attack (Termite; [16]): 9.9 ± 0.3
Rating after 11 Months, Termite Attack (Termite; [17]): 8.9 ± 1.3
Rating after 11 Months, Termite Attack (Termite; Field Site B): 10
Rating of treated tulip sections vs. Time (stains, molds, and fungi [3]; 1 week): 4
Rating of treated tulip sections vs. Time (stains, molds, and fungi [3]; 3 weeks, listed as 0.32% Didecyldimethyl ammonium chloride): 2
Rating of treated tulip sections vs. Time (stains, molds, and fungi [3]; 3 weeks, listed as 0.65% Didecyldimethyl ammonium chloride): 3.5
Rating of treated tulip sections vs. Time (stains, molds, and fungi [3]; 7 weeks): 2
Rating of treated tulip sections vs. Time (stains, molds, and fungi [3]; 11 weeks): 2
IC50 [4]: 5-25 ppm
IC50 [5]: 10-40 ppm
IC50 [6]: 10-20 ppm
IC50 [7]: 30-50 ppm
Rating of treated white birch sections vs. Time (stains, molds, and fungi [8]; 1 week): 4
Rating of treated white birch sections vs. Time (stains, molds, and fungi [8]; 3 weeks): 4
Rating of treated white birch sections vs. Time (stains, molds, and fungi [8]; 7 weeks): 3
Rating of treated white birch sections vs. Time (stains, molds, and fungi [8]; 12 weeks): 3

CCCCCCCCCCCCCCCC[N+](C)(C)[O-] [Hexadecyl dimethylamine oxide, hexadecyl dimethylamine oxide]
IC50 [9]: 80 ppm
IC50 [4]: 5-25 ppm
IC50 [10]: 3 ppm
IC50 [5]: 25-30 ppm
IC50 [6]: 20-50 ppm
IC50 [7]: 30 ppm
MIC ([11]; Gloeophyllum trabeum, read-out: MIC (ppm of amine oxides)): > 1000 µg/mL
MIC ([12]; Chaetomium globosum, read-out: MIC (ppm of amine oxides)): > 1000 µg/mL
MIC ([13]; read-out: MIC (ppm of amine oxides)): > 1000 µg/mL
MIC ([14]; Trametes versicolor, read-out: MIC (ppm of amine oxides)): > 1000 µg/mL
Rating of treated white birch sections vs. Time (stains, molds, and fungi [8]; 1 week): 3
Rating of treated white birch sections vs. Time (stains, molds, and fungi [8]; 3 weeks): 2
Rating of treated white birch sections vs. Time (stains, molds, and fungi [8]; 7 weeks): 2
Rating of treated white birch sections vs. Time (stains, molds, and fungi [8]; 12 weeks): 2

Coco-dimethylamine oxide
IC50 [9]: 80 ppm
IC50 [4]: 3-7 ppm
IC50 [10]: 15 ppm
IC50 [5]: 10-15 ppm
IC50 [6]: 50-70 ppm
IC50 [7]: 40-50 ppm
MIC (ppm of amine oxides) [11]: 500 ppm
MIC (ppm of amine oxides) [12]: >1000 ppm
MIC (ppm of amine oxides) [13]: 500-1000 ppm
MIC (ppm of amine oxides) [14]: 750 ppm
Rating of treated white birch sections vs. Time (stains, molds, and fungi [8]; 1 week): 4
Rating of treated white birch sections vs. Time (stains, molds, and fungi [8]; 3 weeks): 4
Rating of treated white birch sections vs. Time (stains, molds, and fungi [8]; 7 weeks): 3
Rating of treated white birch sections vs. Time (stains, molds, and fungi [8]; 12 weeks): 2
